Experimental findings from PubChem BioAssay AID1996 are described below.

The structures appear in SMILES notation. ≈ marks a conversion by molar mass, not a printed value.

For the series the following is noted: buffer; pH 7.4; 200.0 µM.
In turn, `CC(=O)c1ccc(Nc2nc(C)cc(C)n2)cc1` returned a solubility (kinetic) of 5.6 µg/mL (≈ 23.2 µM). `CC1CCCN(c2nc(N(C)c3ccccc3)nc(N)c2[N+](=O)[O-])C1` (centres undefined): the kinetic solubility worked out at 4.5 µg/mL (≈ 13.1 µM).

As to `O=C(Oc1c(-c2ccccc2)c(=O)n2c3c(cccc13)CC2)c1ccccc1`, the kinetic solubility amounted to 4.8 µg/mL (≈ 13.1 µM). The figure for `CN(C(=O)CNc1ccccc1Cl)C1CCS(=O)(=O)C1` (centres undefined) is over 47.5 µg/mL. `CC(C(=O)O)N1c2cccc3cccc(c23)S1(=O)=O` (centres undefined) showed a kinetic solubility of over 41.6 µg/mL. The molecule `NS(=O)(=O)c1cccc(NC(=O)COC(=O)CCC2CCCC2)c1` came in with a solubility (kinetic) of over 53.2 µg/mL. Then `O=C(O)c1ccc(/C=N/O)cc1`, with over 24.8 µg/mL; and `CCN(CC)CCOCCOc1ccc(Cl)c2ccccc12`, with 32.2 µg/mL (≈ 100 µM); and `O=C(Nc1ccc(Br)c(Br)c1)C1CCCO1` (centres undefined), with 38.8 µg/mL (≈ 111 µM).

Molecule `O=C(COC(=O)CSc1ccc(Cl)cc1)Nc1ccc2[nH]c(=O)[nH]c2c1` yielded a kinetic solubility of 13.5 µg/mL (≈ 34.5 µM). The figure for `O=C(CSc1ccc(F)cc1)Nc1ccc(C2SCCS2)cc1` is under 0.8 µg/mL; for `COc1ccc2nc3c(nc2c1)CCCC3` it is over 32.1 µg/mL; for `COc1ccc(Nc2ccc(N3C(=O)CCC3=O)cc2[N+](=O)[O-])cn1` it is 3.1 µg/mL (≈ 9.06 µM).

Regarding `Nc1nc2c(ncn2C2C[C@H](O)[C@@H](CO)O2)c(=O)[nH]1` (some centres undefined), the kinetic solubility is over 40.1 µg/mL.

`COc1ccc(OC(C)C(=O)NC(C)c2ccccc2)cc1` (centres undefined) showed a kinetic solubility of over 44.9 µg/mL. `c1ccc(C2CN3CCC2CC3)cc1` (centres undefined) yielded a solubility (kinetic) of over 28.1 µg/mL. `COc1ccc(C(=O)NCCc2c[nH]c3ccc(OC)cc23)cc1` had a kinetic solubility of over 48.7 µg/mL. Regarding `C/C=C/c1ccc(OCC(=O)NCc2ccccc2OC)c(OC)c1`, the solubility (kinetic) was found to be 2.9 µg/mL (≈ 8.49 µM). Turning to `CCn1cnc2cc(NC(=O)c3ccc(C)cc3)ccc21`, the kinetic solubility is over 41.9 µg/mL. For `Cc1nc(NC(=O)c2cccnc2Cl)sc1C`, the solubility (kinetic) was over 40.2 µg/mL. For the molecule `Nc1ccc(C2(c3ccc(N)cc3)OC(=O)c3ccccc32)cc1`, the solubility (kinetic) amounted to 32.1 µg/mL (≈ 101 µM). Then `Cc1ccc(S(=O)(=O)NCc2c(-c3ccccc3)noc2C)cc1`, with 40.9 µg/mL (≈ 119 µM); and `Nc1ccccc1SCC(=O)Nc1nccs1`, with over 39.8 µg/mL; and `Cc1ccc(CN(C)C(=O)c2ccccc2Sc2ccccc2C#N)cc1`, with 14.7 µg/mL (≈ 39.5 µM). On to `CCOC(=O)C1=C(c2ccc(O)cc2)NC(=O)NC1C` (centres undefined), for which the kinetic solubility is 37 µg/mL (≈ 134 µM). For the molecule `CN(C(=O)COC(=O)C1CCN(S(=O)(=O)c2ccc(Cl)cc2)CC1)C1CCS(=O)(=O)C1` (centres undefined), the solubility (kinetic) amounted to 18 µg/mL (≈ 36.5 µM). As to `N#CC1(NC(=O)COc2ccccc2[N+](=O)[O-])CCCCC1`, the solubility (kinetic) was over 45.5 µg/mL. On to `CC(=O)c1ccccc1NC(=O)COC(=O)c1cc(C)oc1C`, for which the solubility (kinetic) was found to be 2.2 µg/mL (≈ 6.98 µM).

`O=C(NCCCN1CCCC1=O)c1cc2ccccc2o1` returned a solubility (kinetic) of over 42.9 µg/mL. Then `Cc1nc(Cl)sc1C(=O)Nc1cccc(Cl)c1`, with 34.8 µg/mL (≈ 121 µM). With `COc1ccc(NC(=O)c2ccc3c(c2)NC(=O)CS3)cc1`, the solubility (kinetic) is 10.8 µg/mL (≈ 34.4 µM). As for `CCS(=O)(=O)NCCc1csc(-c2ccc(OC)c(OC)c2)n1`, the solubility (kinetic) was found to be 53.2 µg/mL (≈ 149 µM).

For the molecule `CCOC(=O)Cc1csc(NC(=O)CCC(=O)O)n1`, the solubility (kinetic) is over 42.9 µg/mL. `N#C/C(N)=C(/C#N)N=Cc1cccc(Cl)c1`: the solubility (kinetic) stood at 4 µg/mL (≈ 17.3 µM). `Cc1cccc(C(=O)NCC(=O)N2CCC2)c1` registered a solubility (kinetic) of over 34.8 µg/mL.

In turn, `COc1ccc(OCCSc2nc(C)nc3ccccc23)cc1` showed a kinetic solubility of 0.6 µg/mL (≈ 1.84 µM). In turn, `CN(CC(=O)Nc1ccc(Cl)c(Cl)c1)C(=O)C1CCC1` displayed a solubility (kinetic) of over 47.3 µg/mL. The figure for `CCNC(=O)c1cc(S(=O)(=O)N2CCSCC2)ccc1OC` is 45.1 µg/mL (≈ 131 µM).

Consider `Cc1ccc(C)c(C(=O)COc2ncnc3ccccc23)c1`, for which the kinetic solubility was 9.2 µg/mL (≈ 31.5 µM).

`N#C/C(=C\c1cccc(O)c1)C(=O)N1CCCCC1` registered a kinetic solubility of over 38.4 µg/mL. The molecule `Nc1c(C(=O)N2CCCCCC2)oc2ccccc12` yielded a kinetic solubility of over 38.7 µg/mL. Molecule `O=C(Nc1ccc(NC(=O)c2cccs2)cc1)c1ccccc1` yielded a kinetic solubility of under 0.3 µg/mL. For `CCOc1ccc(NC(=O)CCN2C(=O)c3cccc([N+](=O)[O-])c3C2=O)cc1`, the kinetic solubility amounted to 16.4 µg/mL (≈ 42.8 µM).

Molecule `Cc1ccc(S(=O)(=O)NC(Cc2ccccc2)C(=O)O)cc1` (centres undefined) returned a kinetic solubility of over 47.9 µg/mL. `Cl.O=C(CN1CCCCC1)c1ccc2c(c1)OCO2` came in with a solubility (kinetic) of over 42.6 µg/mL.

In the case of `Cc1nc(-c2ccc([N+](=O)[O-])cc2)nc2[nH]ccc(=O)c12`, the kinetic solubility came out at 0.9 µg/mL (≈ 3.19 µM). As to `Cc1sc2ncnc(NCC(O)c3ccc([N+](=O)[O-])cc3)c2c1C` (centres undefined), the solubility (kinetic) is 5.5 µg/mL (≈ 16 µM). `O=C(CCN1C(=O)C2C3CCC(C3)C2C1=O)Nc1ccc(F)cc1` (centres undefined) gave a solubility (kinetic) of 36.8 µg/mL (≈ 111 µM). `COc1ccc(NC(=S)NCc2ccc(F)cc2)c(OC)c1` yielded a kinetic solubility of over 48.1 µg/mL. `CCN(CC)C(=O)Oc1ccc(NC(=O)N2CCOCC2)cc1` returned a kinetic solubility of over 48.2 µg/mL.

`CC(C)C[C@H](NC(=O)N1CCCCCC1)C(=O)O` had a kinetic solubility of over 38.5 µg/mL. Molecule `CNS(=O)(=O)c1ccc(NS(=O)(=O)c2ccccc2F)cc1` returned a kinetic solubility of 51 µg/mL (≈ 148 µM). Consider `Cc1cccc(NC(=O)c2cccc(C(=O)Nc3cccc(C)n3)c2)n1`, for which the kinetic solubility stood at 0.9 µg/mL (≈ 2.6 µM). On to `CCCNc1nc(Cl)nc(NC(C)(C)C)n1`, for which the solubility (kinetic) was found to be 17.1 µg/mL (≈ 70.2 µM). Molecule `Cc1csc(C(=O)O)c1NC(=O)c1ccc(F)cc1` returned a kinetic solubility of over 41.9 µg/mL. `CCC(C(=O)N/N=C(\C)c1cccnc1)c1ccccc1` (centres undefined) came in with a kinetic solubility of over 42.2 µg/mL. The molecule `O=C(COC(=O)c1ccc(Cl)cc1)NC(=O)NC1CCCC1` gave a solubility (kinetic) of 5.7 µg/mL (≈ 17.6 µM). For `CCc1nc(Nc2ccccc2OC)c2oc3ccccc3c2n1.Cl`, the kinetic solubility was under 0.3 µg/mL. For the molecule `O=C(Nc1ccc(O)cc1)c1ccc(NC(=O)C2CCCO2)cc1` (centres undefined), the solubility (kinetic) is over 49 µg/mL. `CN1CCc2c(sc3nc(NCCO)n(-c4cccc(Cl)c4)c(=O)c23)C1`: the solubility (kinetic) was found to be 58.3 µg/mL (≈ 149 µM). Regarding `CCSc1ccccc1C(=O)N=C1NC(=O)CC2C(=O)NCCN12` (centres undefined), the solubility (kinetic) was determined as 16.9 µg/mL (≈ 48.8 µM).

`Cc1ccc(NC(=O)CSc2nnc(/N=C/N(C)C)s2)cc1` came in with a solubility (kinetic) of over 50.3 µg/mL. With `Cc1ccc(NC(=O)c2ccc([N+](=O)[O-])s2)cc1S(=O)(=O)N1CCOCC1`, the kinetic solubility worked out at 3.1 µg/mL (≈ 7.53 µM). The figure for `COc1ccc(C(=O)NC2CCCc3ccccc32)cc1` (centres undefined) is 6.5 µg/mL (≈ 23.1 µM); for `CCCN1CCC(NC(=O)C2CCN(C(C)=O)CC2)CC1` it is over 44.3 µg/mL; for `CCOC(=O)c1[nH]cnc1C(=O)Nc1ccccc1OC` it is 10.3 µg/mL (≈ 35.6 µM).

Molecule `CCc1nc(NCCO)c(C#N)c2c1CSC(C)(C)C2` displayed a kinetic solubility of 41.2 µg/mL (≈ 141 µM). `COc1ccccc1NC(=O)CNC(c1ccccc1)c1ccccc1` gave a solubility (kinetic) of 1.2 µg/mL (≈ 3.46 µM). `CC1CCCC(C)N1C(=O)COC(=O)c1nn(C)c(=O)c2ccccc12` (centres undefined) gave a solubility (kinetic) of over 53.6 µg/mL. Then `CCOc1ccc(-c2nc[nH]c2[N+](=O)[O-])cc1`, with 1.7 µg/mL (≈ 7.29 µM); and `Cc1nn(C)c(C)c1NC(=O)COc1ccc(F)cc1Br`, with over 53.4 µg/mL. Consider `COc1ccc(-c2nc3c4ccccc4ccn3c2CN2CCCCC2)cc1`, for which the kinetic solubility was found to be 1.7 µg/mL (≈ 4.58 µM). The figure for `O=C(Nc1ccncc1)c1c(F)c(F)c(F)c(F)c1F` is 41.6 µg/mL (≈ 144 µM); for `COc1ccc(CCC(=O)OCC(=O)Nc2ccccc2)cc1` it is over 47 µg/mL. Molecule `O=C(O)c1csc(-c2cccc(Cl)c2)n1` yielded a solubility (kinetic) of 33.9 µg/mL (≈ 141 µM).

With `CCOC(=O)c1c(C)oc2c1c(C=NCCC(=O)O)c(O)c1ccccc12`, the kinetic solubility was under 0.8 µg/mL. Then `Cc1ccc(NC(=O)C(=O)c2c[nH]c3ccccc23)cc1`, with under 0.3 µg/mL; and `CC(NC(=O)CCNC(=O)c1ccco1)c1ccccc1` (centres undefined), with over 42.9 µg/mL. Then `COc1ccccc1CNC(=O)c1cc2ccccc2oc1=O`, with under 0.7 µg/mL. The figure for `CCc1onc(C)c1C(=O)Nc1ccc2c(c1)OCO2` is over 41.1 µg/mL; for `CNC(=O)CN1C(=O)NC2(CCc3ccccc3C2)C1=O` (centres undefined) it is over 43.1 µg/mL. `Cc1ccc(S(=O)(=O)NCCNc2ccc(Br)c(C)c2)cc1` returned a kinetic solubility of 0.6 µg/mL (≈ 1.57 µM).

`Cc1ccc(NC(=O)N(CCC(=O)O)Cc2ccccc2)cc1`: the kinetic solubility is over 46.9 µg/mL. Then `COc1ccc(NC(=O)CN2CCCC2)cc1`, with 34 µg/mL (≈ 145 µM); and `O=C(CN1CCN(c2ccccn2)CC1)Nc1cc(F)ccc1F`, with over 49.9 µg/mL; and `Cc1cc(C(=O)N2CCCc3ccccc32)ccc1[N+](=O)[O-]`, with 34.7 µg/mL (≈ 117 µM).

`Cc1ccc(-c2onc3ccc(C4OCCO4)cc23)cc1` returned a solubility (kinetic) of 1 µg/mL (≈ 3.55 µM). Take `Cc1[nH]c2ccc(C(=O)N3CCC(C(N)=O)CC3)cc2c1C`: the kinetic solubility is over 44.9 µg/mL. Then `Cc1ccc(O)c(NC(=S)NC(=O)/C=C/c2ccccc2)c1`, with under 0.3 µg/mL. As to `O=C(Cc1ccc(F)cc1)Nc1nc(-c2ccc(F)cc2)cs1`, the kinetic solubility is under 0.4 µg/mL.

Take `COc1ccc(C(=O)COC(=O)c2ccccn2)c(OC)c1`: the solubility (kinetic) was over 45.2 µg/mL.

For the molecule `CCOC(=O)C1CCCN(C(=O)COc2ccc(S(=O)(=O)N3CCOCC3)cc2)C1` (centres undefined), the solubility (kinetic) is over 66.1 µg/mL. Consider `Cc1cnc(C(=O)OCc2ccc(Br)cc2)cn1`, for which the kinetic solubility was 19 µg/mL (≈ 61.9 µM).

Molecule `CC(C)c1ccc(NC(=O)NCc2cccnc2)cc1` yielded a solubility (kinetic) of over 40.4 µg/mL.

Take `NS(=O)(=O)c1ccc(NC(=O)CNC(=O)c2ccc3c(c2)OCO3)cc1`: the solubility (kinetic) worked out at 10 µg/mL (≈ 26.5 µM). Take `N#C/C(=C\c1ccc(OCC(N)=O)cc1)C(=O)NC1CC1`: the solubility (kinetic) is over 42.8 µg/mL. On to `CCc1ccc(C(C)NC(=O)c2cccs2)cc1` (centres undefined), for which the solubility (kinetic) worked out at 9 µg/mL (≈ 34.7 µM). `Nc1cc2c(cc1Cl)N(Cc1ccccc1)C(=O)CO2` yielded a kinetic solubility of over 43.3 µg/mL. Regarding `O=C1NCCN/C1=C\C(=O)c1ccc(Br)cc1`, the solubility (kinetic) stood at 17.8 µg/mL (≈ 60.3 µM). With `Cc1cccc(C(=O)OCC(=O)NC2CC2)c1O`, the kinetic solubility is over 37.4 µg/mL. The figure for `CC(C)N1CCN(Cc2ccc3nsnc3c2)CC1CCO` (centres undefined) is over 48.1 µg/mL; for `CCCC(=O)NC(=S)Nc1cccc(Cl)c1N1CCCC1` it is 0.5 µg/mL (≈ 1.53 µM); for `COc1ccc(OCC(=O)NC2CCSc3ccccc32)cc1` (centres undefined) it is 38.6 µg/mL (≈ 117 µM). Then `Cc1cccc(OC(C)C(=O)N2CCc3ccccc3C2)c1` (centres undefined), with 36 µg/mL (≈ 122 µM).
